Experimental data published in article PMC12670164, “In vitro and clinical data demonstrate negligible risk of drug–drug interactions with opelconazole, a novel inhaled antifungal agent” (Journal of Antimicrobial Chemotherapy, 2025).

Experiments:
CYP3A4 = CYP3A4 (Homo sapiens, UniProt P08684); test: clinical
Procedure: The study documents were approved by an Independent Ethics Committee. Study participants provided written informed consent prior to any study procedures.
Screening occurred within 28 days prior to the first dosing day (Figure 1). […] On Days 1 and 15, participants received oral midazolam 7.5 mg and oral caffeine 180 mg together after food ingestion.
Morning doses of opelconazole on Day 2 and Day 15 were taken 30 min after food ingestion.
Primary PK parameters assessed for midazolam and its metabolites (1-OH-midazolam, 4-OH-midazolam), caffeine and opelconazole were Cmax and AUC, from time zero to t, where t is the time of the last quantifiable concentration (AUC(0−t); i.e., AUC(0−12) and AUC(0−24)). Secondary PK parameters were AUC(0−∞), Tmax, apparent t1/2 and accumulation ratio (RO) of opelconazole only.
For caffeine, midazolam and the metabolites of midazolam, the geometric mean ratio (GMR) of Day 15 estimates to those obtained on Day 1 was derived by fitting a linear mixed effect model with the log of the parameter as the response, visit as the fixed effect, and participant as the random effect.

CYP1A2 [1] = test: clinical; settings: both, human, plasma, po, 180 mg, probe caffeine
From the text: To adjust for any residual caffeine in plasma samples, the estimated contribution of residual, pre-dose caffeine was subtracted from the measured caffeine concentration to produce an ‘adjusted concentration.’ Residual caffeine concentrations were estimated from the baseline concentration and the measured elimination rate in individual participants.

CYP1A2 [2] = test: CYP induction, mRNA endpoint, cryopreserved human hepatocytes; settings: human, 72 h
Procedure: The potential for opelconazole to act as an inducer of CYP isoforms CYP1A2, CYP2B6 and CYP3A4 was assessed in vitro using an mRNA endpoint across three donors in cryopreserved human hepatocytes. A drug is interpreted as an inducer if: (1) it increases mRNA expression of a CYP enzyme in a concentration-dependent manner and (2) the fold change of CYP mRNA expression relative to vehicle control is ≥2-fold at the drug’s expected hepatic concentrations.[23]
A cytotoxicity assessment using MTT was performed in one of the three donors used for the induction studies prior to dosing.

[3] = Day 1, oral midazolam 7.5 mg without opelconazole
[4] = Day 15, oral midazolam 7.5 mg after 14 days inhaled opelconazole 14.8 mg twice daily
[5] = both, human, in vivo, po, 7.5 mg

CYP3A4, sequence (P08684 whole entry): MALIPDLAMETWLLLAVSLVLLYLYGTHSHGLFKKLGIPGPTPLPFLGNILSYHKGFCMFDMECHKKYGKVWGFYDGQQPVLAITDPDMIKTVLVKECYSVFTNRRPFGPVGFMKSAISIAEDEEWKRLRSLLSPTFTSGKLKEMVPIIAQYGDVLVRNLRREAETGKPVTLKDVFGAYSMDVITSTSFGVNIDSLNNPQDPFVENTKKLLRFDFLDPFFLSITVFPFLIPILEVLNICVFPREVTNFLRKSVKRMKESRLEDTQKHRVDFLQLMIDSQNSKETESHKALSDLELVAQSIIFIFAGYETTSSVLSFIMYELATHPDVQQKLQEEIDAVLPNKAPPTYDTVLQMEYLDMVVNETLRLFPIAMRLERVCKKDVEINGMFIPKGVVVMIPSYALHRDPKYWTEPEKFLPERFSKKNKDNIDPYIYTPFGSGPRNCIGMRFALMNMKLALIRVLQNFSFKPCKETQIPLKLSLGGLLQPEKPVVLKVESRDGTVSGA

Row | SMILES | AUC(0–24h), geometric mean (CYP3A4; [3]) [ng·h/mL] | Cmax, geometric mean (CYP3A4; [3]) [ng/mL] | AUC(0–24h), geometric mean (CYP3A4; [4]) [ng·h/mL] | Cmax, geometric mean (CYP3A4; [4]) [ng/mL] | also measured
1 | OCc1ncc2n1-c1ccc(Cl)cc1C(c1ccccc1F)=NC2 [1-OH-Midazolam, 1-OH-midazolam] | 72.8 | 16.7 | 60.9 | 13.4 | 
2 | Cc1ncc2n1-c1ccc(Cl)cc1C(c1ccccc1F)=NC2O (stereo not shown) [4-OH-Midazolam, 4-OH-midazolam] | 8.92 | 1.97 | 8.70 | 1.78 | 
3 | Cn1c(=O)c2c(ncn2C)n(C)c1=O [Caffeine, caffeine] |  |  |  |  | AUC(0-t) (CYP1A2 [1]): 33200 ng·h/mL; Cmax (CYP1A2 [1]): 3280 ng/mL
4 | Cc1ncc2n1-c1ccc(Cl)cc1C(c1ccccc1F)=NC2 [Midazolam, midazolam, reference compound] |  |  |  |  | AUC(0-t) (CYP3A4; [5]): 166 ng·h/mL; Cmax (CYP3A4; [5]): 35.1 ng/mL
5 | COc1ccc2[nH]c([S+]([O-])Cc3ncc(C)c(OC)c3C)nc2c1 (stereo not shown) [omeprazole, reference compound] |  |  |  |  | induction outcome of positive control relative to opelconazole (CYP1A2 [2]): > 30 fold
